Results taken from paper PMC8742467, “Therapeutical interference with the epigenetic landscape of germ cell tumors: a comparative drug study and new mechanistical insights” (Clinical Epigenetics, 2022).

How the values were obtained:
2102EP (EC) = experiment: XTT cell viability assay, 2102EP; type: cell-based; conditions: Homo sapiens; after 48 h, XTT, n = 4; read-out: EC50 colour/symbol code, EC 2102EP
Experimental: (§1) The […] (XTT) assays were performed as described previously. In summary, for GCT and fibroblast cell lines 5 × 10^3 cells (3 × 10^3 for UC, PCa and RCC cell lines) per 96-well were seeded and different drug concentrations (see Additional file 2: Fig. S2, Additional file 3: Fig. S3) or corresponding solvents were added to the cells the following day. For drug details see Additional file 12: Table S2 C. Each condition was analyzed in four technical replicates and EC50 values were calculated by GraphPad Prism v8.

[1] = tested on: EC-R (cisplatin-resistant embryonal carcinoma subclones); experiment: XTT cell viability assay, mean per entity EC-R; type: cell-based; conditions: Homo sapiens, after 48 h
Experimental: as §1

[2] = tested on: PRKCB, PRKD1, HDAC9, CSF1R expression in GCT cells; experiment: Quantitative RT-PCR of co-treatment target genes; type: cell-based, Human; conditions: 0.2 × EC50, 0.5 × EC50 and EC50
Experimental: Quantitative RT-PCR (qRT-PCR) was performed as described previously. A total amount of 1 µg of RNA was in-vitro transcribed into cDNA by using Oligo(dT)18 Primer and Maxima H Minus Reverse Transcriptase (200 U/µL) (all Thermo Fisher Scientific). qRT-PCR runs were performed on a 384-well C1000 cycler (BioRad, Feldkirchen, Germany). All samples were analyzed in technical triplicates using 7.34 ng of cDNA for each replicate and the SYBR-green-based Luna Universal qPCR Master Mix (New England Biolabs, Frankfurt am Main, Germany). At the end of each run, melting curve analyses were performed. Oligonucleotide sequences are given in the supplement (Additional file 12: Table S2 B).

[3] = tested on: CC-R (cisplatin-resistant choriocarcinoma subclones); experiment: XTT cell viability assay, mean per entity CC-R; type: cell-based; conditions: Homo sapiens, after 48 h
Experimental: as §1

[4] = tested on: histone modifications in 2102EP cells; experiment: Mass spectrometry analysis of histone modifications (Mod Spec); type: cell-based, Human
In short: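 2102EP cells were treated for 16 h with EC50 concentrations of Quisinostat, JIB-04, Chaetocin, MZ-1, LP99, PRT4165 or GSK343, with DMSO as solvent control. After trypsin harvest, histones were extracted and analysed by mass spectrometry. Raw data were converted to z-scores.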

[5] = tested on: renal cell carcinoma (RCC) cell lines; experiment: XTT cell viability assay, RCC cell lines; type: cell-based; conditions: Homo sapiens, 48 h, mean of three cell lines
Experimental: as §1

[6] = 2102EP cells, Mod Spec raw data
[7] = 2102EP, EC50, 16 h, vs solvent control

- EC50 [5]: > 50 nM
Compound: Cn1cc(CNCC2CCN(c3ncc(C(=O)NO)cn3)CC2)c2ccccc21 [Quisinostat]
- EC50 (2102EP (EC)): < 1000 nM
- EC50 [1]: 7.35 nM
- PRKCB expression (qRT-PCR) [2]: upregulation
- EC50 [3]: 10.7 nM
- H1.4: K25AC, % of peptide pool [4, 6]: 0.02419%
- H1.4: K25ME1, % of peptide pool [4, 6]: 1.754%
- H1.4: K25ME2, % of peptide pool [4, 6]: 0.1017%
- H1.4: K25ME3, % of peptide pool [4, 6]: 0.01896%
- H1.4: K25UN, % of peptide pool [4, 6]: 98.1009%
- H2A1: K13AC, % of peptide pool [4, 6]: 0.02445%
- H2A1: K13UN, % of peptide pool [4, 6]: 99.9755%
- H2A1: K15AC, % of peptide pool [4, 6]: 0.008356%
- H2A1: K15UB, % of peptide pool [4, 6]: 0%
- H2A1: K15UN, % of peptide pool [4, 6]: 99.9916%
- H2A3: K13AC, % of peptide pool [4, 6]: 0.03116%
- H2A3: K13UN, % of peptide pool [4, 6]: 99.9688%
- H2A3: K15AC, % of peptide pool [4, 6]: 0.09989%
- H2A3: K15UB, % of peptide pool [4, 6]: 0%
- H2A3: K15UN, % of peptide pool [4, 6]: 99.9001%
- H2A: K5AC, % of peptide pool [4, 6]: 30.5025%
- H2A: K5UN, % of peptide pool [4, 6]: 69.4975%
- H2A: K9AC, % of peptide pool [4, 6]: 4.727%
- H2A: K9UN, % of peptide pool [4, 6]: 95.2735%
- H2A: K36AC, % of peptide pool [4, 6]: 0.03623%
- H2A: K36UN, % of peptide pool [4, 6]: 99.9638%
- H3: K9AC, % of peptide pool [4, 6]: 3.623%
- H3: K9ME1, % of peptide pool [4, 6]: 30.7914%
- H3: K9ME2, % of peptide pool [4, 6]: 27.5315%
- H3: K9ME3, % of peptide pool [4, 6]: 2.296%
- H3: K9UN, % of peptide pool [4, 6]: 35.7584%
- H3: K14AC, % of peptide pool [4, 6]: 58.3927%
- H3: K14UN, % of peptide pool [4, 6]: 41.6073%
- H3: K18AC, % of peptide pool [4, 6]: 38.2845%
- H3: K18ME1, % of peptide pool [4, 6]: 0.1021%
- H3: K18UN, % of peptide pool [4, 6]: 61.6134%
- H3: K23AC, % of peptide pool [4, 6]: 46.4415%
- H3: K23ME1, % of peptide pool [4, 6]: 0.02903%
- H3: K23UN, % of peptide pool [4, 6]: 53.5295%
- H3: K56AC, % of peptide pool [4, 6]: 0.1713%
- H3: K56ME1, % of peptide pool [4, 6]: 1.011%
- H3: K56UN, % of peptide pool [4, 6]: 98.8174%
- H3: K64AC, % of peptide pool [4, 6]: 0.03095%
- H3: K64UN, % of peptide pool [4, 6]: 99.9691%
- H3: K79AC, % of peptide pool [4, 6]: 0.6776%
- H3: K79ME1, % of peptide pool [4, 6]: 18.2028%
- H3: K79ME2, % of peptide pool [4, 6]: 5.702%
- H3: K79ME3, % of peptide pool [4, 6]: 13.4482%
- H3: K79UN, % of peptide pool [4, 6]: 61.9691%
- H3: K122AC, % of peptide pool [4, 6]: 0.1638%
- H3: K122UN, % of peptide pool [4, 6]: 99.8362%
- H3: Q19ME1, % of peptide pool [4, 6]: 0.00624%
- H3: Q19UN, % of peptide pool [4, 6]: 99.9938%
- H3: Q55ME1, % of peptide pool [4, 6]: 0.3096%
- H3: Q55UN, % of peptide pool [4, 6]: 99.6904%
- H3: R42ME2, % of peptide pool [4, 6]: 2.863%
- H3: R42UN, % of peptide pool [4, 6]: 97.1374%
- H3: R49ME2, % of peptide pool [4, 6]: 6.457%
- H3: R49UN, % of peptide pool [4, 6]: 93.5429%
- H3R2UN: K4AC, % of peptide pool [4, 6]: 0.2031%
- H3R2UN: K4ME1, % of peptide pool [4, 6]: 23.4933%
- H3R2UN: K4ME2, % of peptide pool [4, 6]: 0.2912%
- H3R2UN: K4ME3, % of peptide pool [4, 6]: 0.05363%
- H3R2UN: K4UN, % of peptide pool [4, 6]: 75.9587%
- H3R2UN: Q5ME1, % of peptide pool [4, 6]: 0.06645%
- H3R2UN: Q5UN, % of peptide pool [4, 6]: 99.9336%
- H3.1: K27AC, % of peptide pool [4, 6]: 8.049%
- H3.1: K27ME1, % of peptide pool [4, 6]: 45.2407%
- H3.1: K27ME2, % of peptide pool [4, 6]: 17.0794%
- H3.1: K27ME3, % of peptide pool [4, 6]: 2.551%
- H3.1: K27UN, % of peptide pool [4, 6]: 27.08%
- H3.1: K36AC, % of peptide pool [4, 6]: 0.2956%
- H3.1: K36ME1, % of peptide pool [4, 6]: 12.4481%
- H3.1: K36ME2, % of peptide pool [4, 6]: 50.5827%
- H3.1: K36ME3, % of peptide pool [4, 6]: 20.2944%
- H3.1: K36UN, % of peptide pool [4, 6]: 16.3791%
- H3.3: K27AC, % of peptide pool [4, 6]: 13.7879%
- H3.3: K27M, % of peptide pool [4, 6]: 0%
- H3.3: K27ME1, % of peptide pool [4, 6]: 42.1096%
- H3.3: K27ME2, % of peptide pool [4, 6]: 14.1824%
- H3.3: K27ME3, % of peptide pool [4, 6]: 5.8099%
- H3.3: K27UN, % of peptide pool [4, 6]: 24.1102%
- H3.3: K36AC, % of peptide pool [4, 6]: 4.027%
- H3.3: K36ME1, % of peptide pool [4, 6]: 9.936%
- H3.3: K36ME2, % of peptide pool [4, 6]: 52.9264%
- H3.3: K36ME3, % of peptide pool [4, 6]: 21.2958%
- H3.3: K36UN, % of peptide pool [4, 6]: 11.8156%
- H4: K5AC, % of peptide pool [4, 6]: 13.3396%
- H4: K5UN, % of peptide pool [4, 6]: 86.6604%
- H4: K8AC, % of peptide pool [4, 6]: 32.6787%
- H4: K8UN, % of peptide pool [4, 6]: 67.3213%
- H4: K12AC, % of peptide pool ([4]; 2102EP cells, Mod Spec raw data, histone H4 K12 acetylated): 21.736 % of peptide pool
- H4: K12UN, % of peptide pool ([4]; 2102EP cells, Mod Spec raw data, histone H4 K12 unmodified): 78.264 % of peptide pool
- H4: K16AC, % of peptide pool ([4]; 2102EP cells, Mod Spec raw data, histone H4 K16 acetylated): 69.3546 % of peptide pool
- H4: K16UN, % of peptide pool ([4]; 2102EP cells, Mod Spec raw data, histone H4 K16 unmodified): 30.6454 % of peptide pool
- H4: K20AC, % of peptide pool ([4]; 2102EP cells, Mod Spec raw data, histone H4 K20 acetylated): 15.0365 % of peptide pool
- H4: K20ME2, % of peptide pool ([4]; 2102EP cells, Mod Spec raw data, histone H4 K20 dimethylated): 57.6801 % of peptide pool
- H4: K20ME1, % of peptide pool ([4]; 2102EP cells, Mod Spec raw data, histone H4 K20 monomethylated): 5.018 % of peptide pool
- H4: K20ME3, % of peptide pool ([4]; 2102EP cells, Mod Spec raw data, histone H4 K20 trimethylated): 3.192 % of peptide pool
- H4: K20UN, % of peptide pool ([4]; 2102EP cells, Mod Spec raw data, histone H4 K20 unmodified): 19.0735 % of peptide pool
- change of histone modifications of the expected mode of action (Mod Spec) [4, 7]: strong accumulation of histone acetylation on histones H3 and H4
- off-target changes of histone modifications (Mod Spec) [4, 7]: increase in histone methylation (H3K4me1, H3.3K27me3, H3K56me1, H4K20me1/3)
